# Measurements taken from patent publication US11717554B2, “Method for preventing or treating hangover symptom(s) associated with consumption of alcoholic beverage(s)” (MAX R&D LLC, priority 2019, dated 2023).
# Like-named read-outs stand apart in the source and are kept apart here.
# Experiments:
# acetaldehyde = assay: MTCG in urine of rats treated with ethanol, disulfiram and CG or CbG; details: for oral bioavailability (in words): inferred from urinary MTCG excretion
# Method: In the first study, rats were administered disulfiram, an ALDH inhibitor and alcohol deterrent drug used to inhibit the metabolism of ethanol at the acetaldehyde stage, thus producing an adverse reaction that discourages further alcohol drinking (reviewed in Wikipedia, 2017). Treatment of rats with disulfiram causes a buildup of acetaldehyde in blood (Nagasawa et al, 1978). The rats were then administered CbG, orally, to determine whether CbG, following its in vivo conversion to CG, can sequester the acetaldehyde produced in the disulfiram-treated rats to a product that is excreted into the urine. Note that CbG in vivo may be reduced 2 CG. The product expected from this sequestration reaction is MTCG (vide supra). The MTCG in rat urine, collected over 24 hours following the ethanol dose, was quantitatively analyzed by LC/MS.
# isoamyl aldehyde = details: for BTCG excreted in urine: LC/MS
# Excerpt: In the second study, isoamyl alcohol replaced ethanol, and cyanamide, another clinically-used ALDH inhibitor (Tottmar et al., 1977), replaced disulfiram to block the further metabolism of isoamyl aldehyde derived from isoamyl alcohol (FIG. 3). Isoamyl alcohol is the most abundant small, branched-chain alcohol congener present in bourbon (Damrau and Liddy, 1960). […] The excreted product in urine here would be 2-isoobutylthiazolidine-4-carbonylglycine, viz., BTCG (FIG. 1). The urines were analyzed for BTCG by LC/MS as above.
# [1] = Urinary excretion and metabolic fate of MTCA in rats; type: in vivo
# Excerpt: We examined cysteine (the natural “L’ form), a semi-essential sulfhydryl amino acid, as a sequestering agent for acetaldehyde (Nagasawa et al., 1975). Indeed, cysteine readily condensed with acetaldehyde in aqueous solution to form a cyclic product, 2-methylthiazolidine-4 carboxylic acid (MTCA). […] We, therefore, prepared and administered radio-labeled MTCA (^14C at the 2-position) to a rat to follow its metabolic course (Nagasawa et al., 1984).
# [2] = rat biological fluids; cited from earlier work
# [3] = Stability of MTCG in 0.1 N HCl; type: physicochemical
# Excerpt: Although identified in urine, the long-term stability of MTCG in urine is still a question. MTCG is found to be stable in 0.1 N HCl, so we plan to collect the rat urine in acidified containers on ice. Presence of MTCG will be determined using a HPLC/MS method to obtain quantitative data of MTCG in rat urine.
smiles,measurement,setting,value
"N[C@@H](CS)C(=O)NCC(=O)O [CG, cysteinylglycine]","urinary MTCG excretion, CG group (Group A) compared with disulfiram and ethanol only (Group C)","acetaldehyde; rats, disulfiram and ethanol, 24 hour urine",not statistically significant
same,oral bioavailability (in words),acetaldehyde; rats,poor oral bioavailability
"NC(CSSCC(N)C(=O)NCC(=O)O)C(=O)NCC(=O)O (centres unmarked) [CbG, cystinyl-bis-glycine]",urinary excretion of MTCG relative to CG administration,"acetaldehyde; rats given disulfiram and ethanol, oral CbG (Group B) vs CG (Group A), urine collected over 24 hours, LC/MS",4.25 times greater
same,oral bioavailability (in words),acetaldehyde; rats,more orally bioavailable than CG
same,BTCG excreted in urine,"isoamyl aldehyde; Group A: cyanamide, isoamyl alcohol and CbG","excreted BTCG in the urine, albeit minimally"
same,condition of animals,"isoamyl aldehyde; Group A: rats receiving cyanamide, isoamyl alcohol and CbG, group without CbG was comatose (3 of 7) with one death",normal although hypoactive
same,BTCG excreted in urine,"isoamyl aldehyde; Group C: isoamyl alcohol and CbG, no cyanamide",no BTCG could be detected in urine
same,condition of animals,"isoamyl aldehyde; Group C: rats receiving isoamyl alcohol and CbG, no cyanamide",normal but more active
same,urinary excretion of BTCG compared to MTCG of the first study,"isoamyl aldehyde; cyanamide, CbG, isoamyl alcohol vs disulfiram, CbG, ethanol (nanograms of BTCG vs. micrograms of MTCG)",more than 3 orders of magnitude lower
N[C@@H](CS)C(=O)O [L-cysteine],MTCA in urine after ethanol and L-cysteine,[1]; rats administered ethanol and L-cysteine,could not find MTCA in the urine
"CC1NC(C(=O)O)CS1 (centres unmarked) [MTCA, 2-methylthiazolidine-4 carboxylic acid]",metabolic fate of radiolabel,"[1]; rat, in vivo",most of the radiolabel appeared as expired ^14CO2
same,MTCA in urine after administration of MTCA,"[1]; rats, MTCA 400 mg/kg",no MTCA in the urine
"CC1NC(C(=O)NCC(=O)O)CS1 (centres unmarked) [MTCG, 2-methylthiazolidine-4-carbonylglycine]","stability in biological fluids of rats, including urine",[2],stable
same,stability in 0.1 N HCl,[3],stable
